Like-named read-outs stand apart in the source and are kept apart here.
Tests used:
Assay type in all cases: in vivo
[1] = system: Echinochloa crus-galli (ECHCG); assay: Pre-emergence herbicidal action against ECHCG
Method in brief: (§1)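 Pre-emergence soil-surface spray of compound, formulated as wettable powder or emulsion concentrate, in aqueous suspension or emulsion with 0.5% additive (600 l/ha; rate 320 g/ha or less). Activity rated visually after roughly 3 weeks in the greenhouse as a percentage of untreated controls, 0% meaning no difference.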

[2] = system: Matricaria inodora (MATIN); assay: Pre-emergence herbicidal action against MATIN; conditions: dosage 320 g/ha
Method in brief: as §1

[3] = system: Triticum aestivum (TRZAS); conditions: pre-emergence, 80 g/ha, crop plant compatibility, in comparison to untreated controls
Method in brief: (§2)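 Scoring: visual, % of untreated control, about 3 weeks after a pre-emergence application to the soil surface. Application used WP or EC formulations diluted in water with 0.5% additive at 600 l/ha; dosage levels are marked by suffixes a, b and c.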

[4] = system: Oryza sativa (ORYSA); conditions: pre-emergence, 80 g/ha, crop plant compatibility, in comparison to untreated controls
Method in brief: as §2

[5] = system: Digitaria sanguinalis (DIGSA); assay: Pre-emergence herbicidal action against DIGSA
Method in brief: as §1

[6] = system: Alopecurus myosuroides (ALOMY); assay: Pre-emergence herbicidal action against ALOMY; conditions: 320 g/ha; scored visually after about 3 weeks; 100% = plants have died
Method in brief: as §1

[7] = system: Setaria viridis (SETVI); assay: Pre-emergence herbicidal action against SETVI
Method in brief: as §1

[8] = system: Amaranthus retroflexus (AMARE); assay: Post-emergence herbicidal action against AMARE
Method in brief: (§3)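 Doses of 320 g/ha or lower, suffixes a, b and c marking different dosages, were applied post-emergence at the one-leaf stage in 600 l/ha water with 0.5% additive. Damage was assessed visually after about 3 weeks in the greenhouse.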

[9] = system: Polygonum convolvulus (POLCO); assay: Pre-emergence herbicidal action against POLCO
Method in brief: as §1

[10] = system: Amaranthus retroflexus (AMARE); assay: Pre-emergence herbicidal action against AMARE; conditions: 320 g/ha, visual scoring after about 3 weeks vs untreated controls
Method in brief: as §1

[11] = system: Viola tricolor (VIOTR); assay: Pre-emergence herbicidal action against VIOTR
Method in brief: as §1

[12] = system: Pharbitis purpurea (PHBPU); assay: Post-emergence herbicidal action against PHBPU
Method in brief: as §3

[13] = system: Echinochloa crus-galli (ECHCG); assay: Post-emergence herbicidal action against ECHCG
Method in brief: as §3

[14] = system: Setaria viridis (SETVI); assay: Post-emergence herbicidal action against SETVI
Method in brief: as §3

[15] = system: Avena fatua (AVEFA); assay: Pre-emergence herbicidal action against AVEFA; conditions: 320 g/ha, visual scoring after about 3 weeks vs untreated controls
Method in brief: as §1

[16] = system: Alopecurus myosuroides (ALOMY); assay: Post-emergence herbicidal action against ALOMY; conditions: visual rating about 3 weeks after treatment vs untreated controls (100% = plants have died, 0% = like control plants)
Method in brief: as §3

[17] = system: Lolium rigidum (LOLRI); assay: Pre-emergence herbicidal action against LOLRI; conditions: dosage 320 g/ha
Method in brief: as §1

[18] = system: Abutilon theophrasti (ABUTH); assay: Post-emergence herbicidal action against ABUTH; conditions: visual rating about 3 weeks after treatment vs untreated controls (100% = plants have died, 0% = like control plants)
Method in brief: as §3

[19] = system: Verconica persica (VERPE); assay: Post-emergence herbicidal action against VERPE
Method in brief: as §3

[20] = system: Zea mays (ZEAMX); conditions: for Post-emergence action against ZEAMX in % (crop plant compatibility): 20 g/ha, effect in comparison to untreated controls; for Post-emergence action against ZEAMX in %: crop plant compatibility, 80 g/ha, effect vs untreated controls
Method in brief: (§4)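 Effects were read visually as % versus untreated controls (0% = no effect, 100% = death) about 3 weeks post-treatment. Application was a post-emergence spray at the one-leaf stage of WP/EC formulations with 0.5% additive at 600 l/ha. Different dosages are denoted a, b and c.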

[21] = system: Triticum aestivum (TRZAS); conditions: crop plant compatibility, effect vs untreated controls
Method in brief: as §4

[22] = system: Oryza sativa (ORYSA); conditions: crop plant compatibility
Method in brief: as §4

[23] = system: Zea mays (ZEAMX); conditions: pre-emergence, 80 g/ha, crop plant compatibility, in comparison to untreated controls
Method in brief: as §2

[24] = system: Pharbitis purpurea (PHBPU); assay: Pre-emergence herbicidal action against PHBPU; conditions: dosage 320 g/ha
Method in brief: as §1

[25] = system: Polygonum convolvulus (POLCO); assay: Post-emergence herbicidal action against POLCO; conditions: dosage 320 g/ha
Method in brief: as §3

[26] = system: Verconica persica (VERPE); assay: Pre-emergence herbicidal action against VERPE
Method in brief: as §1

[27] = system: Viola tricolor (VIOTR); assay: Post-emergence herbicidal action against VIOTR
Method in brief: as §3

[28] = system: Lolium rigidum (LOLRI); assay: Post-emergence herbicidal action against LOLRI
Method in brief: as §3

[29] = system: Brassica napus (BRSNW); conditions: 80 g/ha, crop plant compatibility, in comparison to untreated controls
Method in brief: as §2

[30] = system: Avena fatua (AVEFA); assay: Post-emergence herbicidal action against AVEFA; conditions: 80 g/ha, visual rating about 3 weeks after treatment
Method in brief: as §3

[31] = 20 g/ha, effect vs untreated controls
[32] = 80 g/ha, effect in comparison to untreated controls

SMILES | Pre-emergence action against ECHCG in % ([1]; dosage 320 g/ha) [%] | Pre-emergence action against MATIN in % [2] [%] | Pre-emergence action against TRZAS in % [3] [%] | Pre-emergence action against ORYSA in % [4] [%] | Pre-emergence action against ALOMY [6] [%] | Pre-emergence action against SETVI in % ([7]; dosage 320 g/ha) [%] | Pre-emergence action against AMARE in % [10] [%] | Pre-emergence action against VIOTR in % ([11]; 320 g/ha, Viola tricolor) [%] | Pre-emergence action against VIOTR in % ([11]; dosage 80 g/ha) [%] | Pre-emergence action against AVEFA in % [15] [%] | Post-emergence action against ALOMY in % ([16]; 80 g/ha) [%] | Pre-emergence action against LOLRI in % [17] [%] | Post-emergence action against ZEAMX in % (crop plant compatibility) [20] [%] | Post-emergence action against ORYSA in % [22, 31] [%] | Post-emergence action against ORYSA in % [22, 32] [%] | Pre-emergence action against VERPE in % ([26]; dosage 320 g/ha) [%] | Post-emergence action against ZEAMX in % [20] [%] | other results
O=C(COc1nn(-c2ccccn2)c(-c2ccc(F)nc2)c1Cl)NS(=O)(=O)CC(F)(F)F [Example I-119] | 100 | 90 | 20 | 10 | 100 | 100 | 100 | 90 | 80 | 80 | 90 | 100 | 10 | 0 | 10 | – | – | Pre-emergence action against ECHCG in % ([1]; dosage 80 g/ha): 80%; Pre-emergence action against DIGSA in % ([5]; 80 g/ha, visual scoring after about 3 weeks vs untreated controls): 100%; Pre-emergence action against DIGSA in % ([5]; dosage 320 g/ha): 100%; Post-emergence action against AMARE in % ([8]; 80 g/ha, visual rating about 3 weeks after treatment vs untreated controls (100% = plants have died, 0% = like control plants)): 90%; Pre-emergence action against POLCO in % ([9]; dosage 80 g/ha): 80%; Pre-emergence action against POLCO in % ([9]; dosage 320 g/ha): 90%; Post-emergence action against PHBPU in % ([12]; dosage 80 g/ha): 80%; Post-emergence action against ECHCG in % ([13]; dosage 80 g/ha): 80%; Post-emergence action against SETVI in % ([14]; dosage 80 g/ha): 80%; Post-emergence action against ABUTH in % ([18]; 80 g/ha): 80%; Post-emergence action against VERPE in % ([19]; dosage 80 g/ha): 80%; Post-emergence action against TRZAS in % ([21]; 20 g/ha): 20%
Cc1cccc(-n2nc(OCC(=O)O)c(Br)c2-c2ccc(F)nc2)n1 [Example I-376] | 90 | 80 | 10 | 20 | 80 | 100 | 90 | – | – | – | – | 90 | – | – | 0 | 80 | 10 | Pre-emergence action against ZEAMX in % [23]: 10%; Pre-emergence action against PHBPU in % [24]: 90%; Post-emergence action against POLCO in % [25]: 80%; Post-emergence action against AMARE in % ([8]; 320 g/ha, visual rating about 3 weeks after treatment): 80%; Pre-emergence action against VERPE in % ([26]; dosage 80 g/ha): 80%; Post-emergence action against VIOTR in % ([27]; 320 g/ha): 80%; Post-emergence action against PHBPU in % ([12]; dosage 320 g/ha): 80%; Post-emergence action against ECHCG in % ([13]; dosage 320 g/ha): 90%; Post-emergence action against SETVI in % ([14]; dosage 320 g/ha): 80%; Post-emergence action against ALOMY in % ([16]; 320 g/ha): 80%; Post-emergence action against LOLRI in % ([28]; dosage 320 g/ha): 90%; Post-emergence action against ABUTH in % ([18]; 320 g/ha): 80%; Post-emergence action against VERPE in % ([19]; 320 g/ha, VERPE): 80%; Post-emergence action against TRZAS in % ([21]; 80 g/ha): 0%; Post-emergence action against TRZAS in % ([21]; 320 g/ha): 20%; Post-emergence action against ORYSA in % ([22]; 320 g/ha, effect in comparison to untreated controls): 20%
CCOC(=O)C(C)Oc1nn(-c2ccccn2)c(-c2ccc(F)nc2)c1I (stereo not shown) [Example I-101] | 90 | – | – | – | 100 | 100 | 100 | 100 | 80 | 90 | 90 | 100 | 10 | 0 | 10 | 100 | 10 | Pre-emergence action against BRSNW in % [29]: 10%; Pre-emergence action against SETVI in % ([7]; dosage 80 g/ha): 90%; Post-emergence action against VIOTR in % ([27]; 80 g/ha): 80%; Post-emergence action against LOLRI in % ([28]; dosage 80 g/ha): 90%; Post-emergence action against AVEFA in % [30]: 80%
